Data reported in US20240284907A1, “NOVEL DERIVATIVES OF NON-CODED AMINO ACIDS AND THEIR USE AS HERBICIDES” (FortePhest LTD., priority 2021, published 2024).

tested on: Seeds of Lettuce R. (Super-Jericho); assay: Filter paper bioassay with lettuce seeds: germination and early plant development, Minimal Effective Concentration (MEC); format: in vivo; conditions: lettuce seeds on filter paper, 0 to 1 mmol/l, visually assessed after 6 days
From the text: Materials: Seeds of Lettuce R. (Super-Jericho, non-sterilized) were obtained from Ben Shahar Moshe Ltd., 99% purity. The test compounds listed in the Table 2 below were synthetized de novo or purchased from different vendors.
Filter Paper Bioassays with Lettuce seeds: The protocol is following Bertin et al. 2009 and Movellan et al. 2014 with specified modifications as described below.
Seeds were placed on Whatman no. 1 filter paper (Whatman, Middlesex, U.K.) in Petri dishes (10 seeds per plate) with 2.0 ml of aqueous solution of a test material in concentration ranged from 0 (control) to 1 mmol/l were placed in a tray tilted at 45[…]. The trays were kept in dark for 48 hours and then transferred to the growth chamber with 6/18 dark/light cycle for 4 days. Each experiment was performed at least with two repeats.
The development of plants' radicle and shoots were visually assessed 6 days after the beginning of the test to determine Minimal Effective Concentration (MEC) of a test material. In the context of the invention, MEC is defined as the lowest concentration level of a test material that caused deviation (absence of germination or malformation of radicle or shoots) from the plant's development in the Control group.

Molecule	Score (activity score of Minimal Effective Concentration, MEC)
2-(4-methylphenyl)-2-oxoethyl(2-chloro-1,3-thiazol-4-yl)acetate [compound 5795]	Moderate (0.1 mM)
3-(thiophen-3-yl)propane-1,2-diol [compound 5604]	Moderate (0.1 mM)
O=C(O)C(F)c1nc(F)c(F)cc1F (stereo not drawn) [compound 6661, 2-fluoro-2-(3,5,6-trifluoropyridin-2-yl)acetic acid]	Moderate (0.1 mM)
naphthalene-2-carboxylic acid [compound 691]	Weak (Higher than 0.1 mM)
N=C(N)NCc1cccc(Br)n1 [compound 6636, N-[(6-bromopyridin-2-yl)methyl]guanidine]	Moderate (0.1 mM)
2-(2-ethoxyethoxy)ethyl(2-chloro-1,3-thiazol-4-yl)acetate [compound 5800]	Strong (0.01 mM)
C[N+](C)(C)CCc1nc(Cl)sc1Cl [compound 5680, 2-(2,5-dichloro-1,3-thiazol-4-yl)-NNN-trimethylethan-1-aminium]	Weak (Higher than 0.1 mM)
CNNC(=O)Cc1csc(Cl)n1 [compound 5715, 2-(2-chloro-1,3-thiazol-4-yl)-N′-methyl acetohydrazide]	Moderate (0.1 mM)
2-bromo-N-[(2,5-dichlorothiophen-3-yl)methyl]pyridine-4-carboxamide [compound 5614]	Moderate (0.1 mM)
NC(Cc1cccc(Br)c1)C(=O)O (stereo not drawn) [compound 6669, 2-amino-3-(3-bromophenyl)propanoic acid]	Moderate (0.1 mM)
O=C(O)C(F)(F)c1ccncc1 [compound 6614, 2,2-difluoro-2-(pyridin-4-yl)acetic acid]	Weak (Higher than 0.1 mM)
O=C(O)C(F)(F)c1nnn[nH]1 [compound 5799, difluoro(1H-tetrazol-5-yl)acetic acid]	Moderate (0.1 mM)
2-bromo-6-phenoxypyridine [compound 6645]	Strong (0.01 mM)
ethyl 2-(2-chlorooxazol-4-yl)-2,2-difluoroacetate [compound 5783]	Moderate (0.1 mM)
2-bromopyridine-4-carboxylic acid [compound 692]	Weak (Higher than 0.1 mM)
O=C(O)C(=O)c1c(Cl)sc(Cl)c1Cl [compound 5645, 2-oxo-2-(245-trichlorothiophen-3-yl)acetic acid]	Strong (0.01 mM)
2-(2,6-dichloropyridin-4-yl)-2,2-difluoroacetic acid [compound 6628]	Weak (Higher than 0.1 mM)
(6-bromopyridin-2-yl)methyl 2-(2-chlorothiophen-3-yl)acetate [compound 5802]	Moderate (0.1 mM)
O=C(O)C(F)(F)c1ncccn1 [compound 6619, 2,2-difluoro-2-(pyrimidin-2-yl)acetic acid]	Weak (Higher than 0.1 mM)
2-(1H-1,2,4-triazol-5-yl)ethan-1-amine [compound 592]	weak

Molecule	Score (activity score of Minimal Effective Concentration, MEC)
methyl 2-(2-bromopyridin-4-yl)-2,2-difluoroacetate [compound 6629]	Moderate (0.1 mM)
2-amino-2-(2,5-dichlorothiophen-3-yl)acetic acid [compound 5659]	Weak (Higher than 0.1 mM)
3-(thiophen-3-yl)propan-1-amine [compound 593]	weak
BrCCc1ccnc(Br)c1 [compound 690, 2-bromo-4-(2-bromoethyl)pyridine]	Weak (Higher than 0.1 mM)
2-(thiophen-3-yl)ethane-1-thiol [compound 5601]	Moderate (0.1 mM)
{2-[(6-amino-9H-purin-9-yl)methoxy]ethoxy}methyl(2-chloro-1,3-thiazol-4-yl)acetate [compound 5752]	Moderate (0.1 mM)
O=C([O-])Cc1cnsn1.[Li+] [compound 5776, lithium(1+) 2-(1,2,5-thiadiazol-3-yl)acetate[Li+]]	Moderate (0.1 mM)
O=C(Cc1csc(Cl)n1)OCC(=O)c1cccc(Br)n1 [compound 5801, 2-(6-bromopyridin-2-yl)-2-oxoethyl 2-(2-chloro-1,3-thiazol-4-yl)acetate]	Moderate (0.1 mM)
2-(6-bromopyridin-3-yl)-2,2-difluoroacetic acid [compound 6620]	Strong (0.01 mM)
NCC(O)c1ccsc1 (stereo not drawn) [compound 590, 2-amino-1-(thiophen-3-yl)ethan-1-ol]	weak
(2-bromopyridin-4-yl)(oxo)acetic acid [compound 6626]	Moderate (0.1 mM)
Cc1nsnc1CC(=O)O [compound 5785, (4-methyl-1,2,5-thiadiazol-3-yl)acetic acid]	Moderate (0.1 mM)
dichloro-1,3-thiazole-4-carboxamide [compound 5616]	Moderate (0.1 mM)
Cl.NC(Cc1n[nH]c2ccccc12)C(=O)O (stereo not drawn) [compound 599, 2-amino-3-(1H-indazol-3-yl)propanoic acid hydrochloride[HCl]]	Moderate (0.1 mM)
O=C(O)C(F)(F)c1sc(Cl)nc1Cl [compound 5722, (24-dichloro-1,3-thiazol-5-yl)(difluoro)acetic acid]	Weak (Higher than 0.1 mM)
2-{2-[3-fluoro-5-(trifluoromethyl)pyridin-2-yl]-1,3-thiazol-4-yl}acetic acid [compound 5770]	Weak (Higher than 0.1 mM)
O=C(O)C1Cc2nnsc2S1 (stereo not drawn) [compound 5750, 5H,6H-thieno[3,2-d][1,2,3]thiadiazole-5-carboxylic acid]	Moderate (0.1 mM)
O=C(O)C(O)Cc1cc(Cl)sc1Cl (stereo not drawn) [compound 585, 3-(2,5-dichlorothiophen-3-yl)-2-hydroxypropanoic acid]	moderate
ethyl 2-(2-amino-5-chloro-1,3-thiazol-4-yl)-2,2-difluoroacetate [compound 5729]	Weak (Higher than 0.1 mM)
